Reference: patent US20140105879A1, “FLOUR-BASED FUNCTIONAL FOOD” (priority 2011, published 2014)

Tested on: HMG-CoA reductase
Assay: action on the enzyme HMG-CoA reductase (further experimental data)
Text: Therefore, the functional bread to which vegetable extracts have been added according to the present invention is capable of exerting a functional, salutary action in prevention and treatment of cholesterol and triglyceride levels exceeding the reference values, in addition to an action of protecting the arteries and the cardio-circulatory system and a hepatoprotective and antioxidant action, thanks to the synergistic biochemical actions of the phytocomplexes included in the bread, which enable an enhanced bioactivity thereof to be obtained in the resulting product.

SMILES: CCCCCCCCCCCCCCCCCCCCCCCCCCCCO [octacosanol]
- action on the enzyme HMG-CoA reductase: reducing the quantity thereof
